In paper PMC5706701, “Development of a homogenous high-throughput assay for inositol hexakisphosphate kinase 1 activity” (PLoS ONE, 2017):
Counter-ions that a name gives are not always drawn. Like-named read-outs stand apart in the source and are kept apart here.

Molecular target: T1, Human IP6K1 (Homo sapiens, UniProt Q92551)
T1 construct: GST (N, cleaved yes); made in house; host or cells: C43 E. coli, pGEX-6P-2
Test: IP6K1 high-throughput screen of the Sigma LOPAC (ADP-Glo Max, single point);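 also: final compound concentration 10µM in 5% DMSO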
Type: biochemical

[1] = LOPAC single-point screen, ADP-Glo Max raw signal per well
[2] = LOPAC single-point screen, Z-score against plate average and StDev
[3] = LOPAC single-point screen, ADP-Glo Max luminescence raw signal per well
[4] = LOPAC single-point screen, Z-score relative to plate average and StDev
[5] = LOPAC single-point screen, Z-score from raw signal with plate average and StDev
[6] = Sigma LOPAC single-point screen, ADP-Glo Max raw signal per well
[7] = Sigma LOPAC single-point screen, Z-score from plate average and StDev
[8] = LOPAC single-point screen, Z-score from plate average and StDev

T1 sequence (Q92551 whole entry): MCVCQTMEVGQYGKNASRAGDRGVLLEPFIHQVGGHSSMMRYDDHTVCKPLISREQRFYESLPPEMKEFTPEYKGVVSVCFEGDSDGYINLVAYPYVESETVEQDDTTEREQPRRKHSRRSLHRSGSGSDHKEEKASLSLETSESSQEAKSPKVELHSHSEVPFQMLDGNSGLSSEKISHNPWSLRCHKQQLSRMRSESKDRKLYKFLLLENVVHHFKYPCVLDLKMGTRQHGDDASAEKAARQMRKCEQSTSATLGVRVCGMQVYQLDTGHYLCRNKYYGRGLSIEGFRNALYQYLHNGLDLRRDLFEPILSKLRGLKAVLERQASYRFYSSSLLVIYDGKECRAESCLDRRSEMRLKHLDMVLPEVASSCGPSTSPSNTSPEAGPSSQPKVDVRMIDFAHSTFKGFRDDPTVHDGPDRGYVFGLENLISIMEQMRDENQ

SMILES: OC(CN1CCN(c2cccc(Cl)c2)CC1)C(c1ccccc1)c1ccccc1 (stereo not drawn) [BRL 15572]
- Raw Signal [1]: 57949
- Z-score [2]: 0.006323

SMILES: C[C@H](Cc1ccc(OCC(=O)[O-])cc1)NC[C@H](O)c1cccc(Cl)c1.[Na+] [BRL 37344 sodium]
- Raw Signal [3]: 53982
- Z-score [4]: -0.6924

SMILES: Cl.O=C(Cc1ccc(Cl)c(Cl)c1)N1CCCCC1CN1CCCC1 (stereo not drawn) [BRL 52537 hydrochloride]
- Raw Signal [1]: 55058
- Z-score [5]: -0.1876

SMILES: CN1CCC(c2c[nH]c3ccc(O)cc23)CC1.O=C(O)/C=C\C(=O)O [BRL 54443 maleate]
- Raw Signal [3]: 53701
- Z-score [4]: -0.7419

SMILES: Cl.c1ccc2sc(C3(N4CCCCC4)CCCCC3)cc2c1 [BTCP hydrochloride]
- Raw Signal [1]: 55871
- Z-score [5]: -0.3597

SMILES: Cl.c1ccc2nc(C3=NCCN3)ccc2c1 [BU224 hydrochloride]
- Raw Signal [6]: 61573
- Z-score [7]: 0.6446

SMILES: S=C=Nc1ccc2oc(C3=NCCN3)cc2c1 [BU99006]
- Raw Signal [1]: 56328
- Z-score [2]: 0.2358

SMILES: O=C(O)CCCCCCC1C(=O)NC(=O)N1CCC(O)C1CCCCC1 (stereo not drawn) [BW 245C]
- Raw Signal [3]: 64569
- Z-score [8]: 1.71

SMILES: C=CC[N+](C)(C)c1ccc(CCC(=O)CCc2ccc([N+](C)(C)CC=C)cc2)cc1.[Br-].[Br-] [BW 284c51]
- Raw Signal [1]: 57519
- Z-score [2]: -0.06941

SMILES: CC(N)Cc1c[nH]c2ccc(OCc3cccs3)cc12 (stereo not drawn) [BW 723C86]
- Raw Signal [3]: 55162
- Z-score [4]: -0.4845

SMILES: CC(/C=C/c1cccc(Oc2ccc(F)cc2)c1)N(O)C(N)=O (stereo not drawn) [BWB70C]
- Raw Signal [1]: 58720
- Z-score [2]: 0.1421

SMILES: CC(C)(C)c1ccc(S(=O)(=O)/C=C/C#N)cc1 [Bay 11-7085]
- Raw Signal [1]: 58167
- Z-score [2]: 0.04472

SMILES: C[C@H]1C[C@H]2[C@@H]3CCC4=CC(=O)C=C[C@]4(C)[C@@]3(Cl)[C@@H](O)C[C@]2(C)[C@@]1(O)C(=O)CO [Beclomethasone]
- Raw Signal [1]: 55439
- Z-score [5]: -0.4358

SMILES: c1ccc2cc(-c3ncc[nH]3)ccc2c1 [Benazoline oxalate]
- Raw Signal [6]: 61441
- Z-score [7]: 0.6214

SMILES: COc1cccc(OC)c1OCCNCC1CSc2ccccc2O1 (stereo not drawn) [Benoxathian hydrochloride]
- Raw Signal [1]: 57648
- Z-score [2]: -0.04669

SMILES: NC(CO)C(=O)NNCc1ccc(O)c(O)c1O (stereo not drawn) [Benserazide hydrochloride]
- Raw Signal [3]: 50551
- Z-score [4]: -1.297

SMILES: NC(=O)c1ccccc1 [Benzamide]
- Raw Signal [3]: 54873
- Z-score [4]: -0.5354

SMILES: N=C(N)c1ccccc1 [Benzamidine hydrochloride]
- Raw Signal [1]: 57181
- Z-score [5]: -0.1289

SMILES: NC(=NCc1ccccc1)NC(=O)c1nc(Cl)c(N)nc1N [Benzamil hydrochloride]
- Raw Signal [1]: 59018
- Z-score [2]: 0.1946

SMILES: CN1[C@@H]2CC[C@H]1C[C@@H](OC(c1ccccc1)c1ccccc1)C2 [Benztropine mesylate]
- Raw Signal [6]: 60233
- Z-score [7]: 0.4086

SMILES: CC(C)COCC(CN(Cc1ccccc1)c1ccccc1)N1CCCC1 (stereo not drawn) [Bepridil hydrochloride]
- Raw Signal [6]: 60020
- Z-score [7]: 0.3711

SMILES: CC(C)C[C@H](NC(=O)[C@@H](O)[C@H](N)Cc1ccccc1)C(=O)O [Bestatin hydrochloride]
- Raw Signal [1]: 54023
- Z-score [5]: -0.2323

SMILES: C[N+](C)(C)CC=O [Betaine aldehyde chloride]
- Raw Signal [1]: 58689
- Z-score [2]: 0.1367

SMILES: C[N+](C)(C)CC(=O)O [Betaine hydrochloride]
- Raw Signal [6]: 62144
- Z-score [7]: 0.7452

SMILES: C[C@H]1C[C@H]2[C@@H]3CCC4=CC(=O)C=C[C@]4(C)[C@@]3(F)[C@@H](O)C[C@]2(C)[C@@]1(O)C(=O)CO [Betamethasone]
- Raw Signal [1]: 58863
- Z-score [2]: 0.1673

SMILES: CC(C)NCC(O)COc1ccc(CCOCC2CC2)cc1 (stereo not drawn) [Betaxolol hydrochloride]
- Raw Signal [1]: 59138
- Z-score [2]: 0.2157

SMILES: CC(C[N+](C)(C)C)OC(N)=O (stereo not drawn) [Bethanechol chloride]
- Raw Signal [1]: 59240
- Z-score [2]: 0.2337

SMILES: CC[N+](C)(C)Cc1ccccc1Br [Bretylium tosylate]
- Raw Signal [1]: 56921
- Z-score [5]: -0.1747

SMILES: C=CCc1ccccc1OCC(O)CNC1(C)CCC(C(C)(C)NC(=O)CBr)CC1 (stereo not drawn) [Bromoacetyl alprenolol menthane]
- Raw Signal [1]: 55252
- Z-score [5]: -0.4687

SMILES: C[N+](C)(C)CCOC(=O)CBr.[Br-] [Bromoacetylcholine bromide]
- Raw Signal [3]: 53767
- Z-score [4]: -0.7302

SMILES: O=C1O/C(=C/Br)CCC1c1cccc2ccccc12 (stereo not drawn) [Bromoenol lactone]
- Raw Signal [3]: 52508
- Z-score [4]: -0.952

SMILES: CCCC1O[C@@H]2C[C@H]3[C@@H]4CCC5=CC(=O)C=C[C@]5(C)[C@H]4[C@@H](O)C[C@]3(C)[C@]2(C(=O)CO)O1 (stereo partly drawn) [Budesonide]
- Raw Signal [3]: 54430
- Z-score [4]: -0.6135

SMILES: CCCCNc1cc(C(=O)O)cc(S(N)(=O)=O)c1Oc1ccccc1 [Bumetanide]
- Raw Signal [6]: 62300
- Z-score [7]: 0.7727

SMILES: CC(NC(C)(C)C)C(=O)c1cccc(Cl)c1 (stereo not drawn) [Bupropion hydrochloride]
- Raw Signal [1]: 56700
- Z-score [5]: -0.2137

SMILES: O=C1CC2(CCCC2)CC(=O)N1CCCCN1CCN(c2ncccn2)CC1 [Buspirone hydrochloride]
- Raw Signal [6]: 60893
- Z-score [7]: 0.5248

SMILES: CCCN(CCC)C(=O)Cc1c(-c2ccc(Cl)cc2)nc2c(Cl)cc(Cl)cn12 [CB34]
- Raw Signal [6]: 60254
- Z-score [7]: 0.4123

SMILES: NC(=O)c1cc(N2CC2)c([N+](=O)[O-])cc1[N+](=O)[O-] [CB 1954]
- Raw Signal [1]: 55279
- Z-score [5]: -0.4639

SMILES: CS(=O)(=O)O.Cn1cc(C(F)(F)F)nc1-c1ccc(OCC(O)CNCCOc2ccc(O)c(C(N)=O)c2)cc1 (stereo not drawn) [CGP 20712A methanesulfonate]
- Raw Signal [6]: 57129
- Z-score [7]: 0.3985

SMILES: CC(C)(CO)Cc1cc(C(C)(C)C)c(O)c(C(C)(C)C)c1 [CGP-7930]
- Raw Signal [6]: 64858
- Z-score [7]: 1.223

SMILES: CC(C)(C=O)Cc1cc(C(C)(C)C)c(O)c(C(C)(C)C)c1 [CGP-13501]
- Raw Signal [1]: 59120
- Z-score [2]: 0.2126

SMILES: CCn1cnc2c(Nc3cccc(Cl)c3)nc(N[C@@H]3CCCC[C@@H]3N)nc21.Cl [CGP-74514A hydrochloride]
- Raw Signal [1]: 58874
- Z-score [2]: 0.1692

SMILES: CN1CCN(c2nc3cc(C(F)(F)F)ccc3n3cccc23)CC1.O=C(O)/C=C\C(=O)O [CGS-12066A maleate]
- Raw Signal [6]: 58347
- Z-score [7]: 0.6458

SMILES: Nc1nc2ccc(Cl)cc2c2nc(-c3ccco3)nn12 [CGS-15943]
- Raw Signal: 60608
- Z-score: 1.105

SMILES: CCNC(=O)[C@H]1O[C@@H](n2cnc3c(N)nc(NCCc4ccc(CCC(=O)O)cc4)nc32)[C@H](O)[C@@H]1O.Cl [CGS-21680 hydrochloride]
- Raw Signal [3]: 62301
- Z-score [8]: 1.449

SMILES: C[C@H](Cc1ccc2c(c1)OC(C(=O)[O-])(C(=O)[O-])O2)NC[C@H](O)c1cccc(Cl)c1.[Na+].[Na+] [CL 316,243]
- Raw Signal [1]: 56247
- Z-score [5]: -0.2934

SMILES: N#Cc1cc2nc([O-])c([O-])nc2cc1[N+](=O)[O-].[Na+].[Na+] [CNQX disodium]
- Raw Signal [1]: 53180
- Z-score [5]: -0.4035

SMILES: CCc1cccc(N(C)C(N)=Nc2cccc3ccccc23)c1 [CNS-1102]
- Raw Signal [6]: 64774
- Z-score [7]: 1.208

SMILES: CCCCCCC(C)(C)c1ccc([C@@H]2C[C@H](O)CC[C@H]2CCCO)c(O)c1 [CP55940]
- Raw Signal [1]: 55459
- Z-score [5]: -0.4322

SMILES: CC1(C)CCC(NC(=O)[C@@H](N)CCC(=O)O)CC1 [CR 2249]
- Raw Signal [1]: 52015
- Z-score [5]: -0.3997

SMILES: Cc1cc(C)c(NC(=O)C[C@H](CC(=O)O)c2cccc3ccccc23)c(C(=O)N2CCC3(CCCC3)CC2)c1 [CR 2945]
- Raw Signal [1]: 55023
- Z-score [2]: 0.1058

SMILES: CCCCCCCCCCCCCCCCCCNC(=O)OCC(COP(=O)([O-])OCC[n+]1ccsc1)OC (stereo not drawn) [CV-3988]
- Raw Signal [3]: 52703
- Z-score [4]: -0.6452

SMILES: O=C(c1ccc2c(c1)OCCO2)N1CCCCC1 [CX 546]
- Raw Signal [6]: 57767
- Z-score [7]: 0.528

SMILES: O=C(O)/C=C/c1ccc(O)c(O)c1 [Caffeic Acid]
- Raw Signal [1]: 56687
- Z-score [5]: -0.216

SMILES: O=C(/C=C/c1ccc(O)c(O)c1)OCCc1ccccc1 [Caffeic acid phenethyl ester]
- Raw Signal [3]: 53915
- Z-score [4]: -0.7042

SMILES: Cn1c(=O)c2c(ncn2C)n(C)c1=O [Caffeine]
- Raw Signal [1]: 57928
- Z-score [2]: 0.002624

SMILES: CNc1ccc2oc(C[C@H]3O[C@@]4(CC[C@H]3C)O[C@H]([C@H](C)C(=O)c3ccc[nH]3)[C@H](C)C[C@H]4C)nc2c1C(=O)O [Calcimycin]
- Raw Signal [3]: 66206
- Z-score [8]: 1.461

SMILES: Clc1ccc(C(c2ccc(Cl)cc2)n2cc[n+](CC(OCc3ccc(Cl)cc3Cl)c3ccc(Cl)cc3Cl)c2)cc1 (stereo not drawn) [Calmidazolium chloride]
- Raw Signal [1]: 57343
- Z-score [5]: -0.1004

SMILES: CC1(C(=O)O)C2CCC(O2)C1(C)C(=O)O (stereo not drawn) [Cantharidic Acid]
- Raw Signal [6]: 61779
- Z-score [7]: 0.6809

SMILES: C[C@@]12C(=O)OC(=O)[C@]1(C)[C@H]1CC[C@@H]2O1 [Cantharidin]
- Raw Signal [6]: 61165
- Z-score [7]: 0.5727

SMILES: Oc1cc2c(cc1O)CN(C(=S)NCCc1ccc(Cl)cc1)CCC2 [Capsazepine]
- Raw Signal [1]: 54995
- Z-score [2]: -0.03494

SMILES: C[C@H](CS)C(=O)N1CCC[C@H]1C(=O)O [Captopril]
- Raw Signal [1]: 58254
- Z-score [2]: 0.06004

SMILES: C[N+](C)(C)CCOC(N)=O [Carbachol]
- Raw Signal [6]: 62361
- Z-score [7]: 0.7834

SMILES: NC(=O)N1c2ccccc2C=Cc2ccccc21 [Carbamazepine]
- Raw Signal [6]: 60604
- Z-score [7]: 0.4739
